For data set [1], the system named is A549-Dual cells. The data set is described as follows: Single-point kinase inhibitor library screen: nLuc expression from NP-1+mRNA-nLuc in IFN-treated cells. As to conditions: compound 50 μM pre-treatment, NP-1+mRNA 20 ng/well + IFN; for fold induction at 50 µM: Homo sapiens, read-out: fold nLuc over RNA + IFN. It is filed as cell-based, human. How it is done: (§1) The cells produce secreted embryonic alkaline phosphatase (SEAP), under the control of the interferon beta […] minimal promoter fused to five NF-κB binding sites. The cells also secrete lucia luciferase under the control of IFIT2 promoter.
To measure protein expression from mRNA, which is the primary readout for compound down selection, mRNA encoding a secreted version of nanoluciferase (mRNA-nLuc) was used. Protein expression was measured via a luminometer using standard techniques.
As additional criterion, expression in compound treated cells was compared relative to mRNA-transfected cells without IFN (“RNA only”) (data not shown).
A library of small molecule kinase inhibitors was screened for the ability to enhance expression of mRNA-encoded genes when co-delivered with mRNA.

The test system of another data set is IFIT2. The experiment in a line: Single-point screen: IFIT2 activation (Lucia luciferase, QUANTI-Luc). It is filed as cell-based, human. As to conditions: A549-Dual cells, compound 50 μM pre-treatment, NP-1+mRNA 20 ng/well + IFN; for fold induction at 50 µM: Homo sapiens, 24 h, read-out: fold IFIT over IFN.
Source text: as §1

For the next data set, the system named is NF-κB. The data set is described as follows: Single-point screen: NFκB activation (SEAP reporter). It is filed as cell-based, human. As to conditions: A549-Dual cells, compound 50 μM pre-treatment, NP-1+mRNA 20 ng/well + IFN; for fold induction at 50 µM: Homo sapiens, 24 h, read-out: fold NFkB over IFN.
Source text: as §1

The subject of data set [2] is A549-Dual cells. The experiment in a line: Single-point screen: cell viability by CellTiter-Glo. As to conditions: A549-Dual cells incubated overnight with compound at 50 μM, then NP-1+mRNA 20 ng/well + IFN 1:50. (In ATP-based viability assays light output follows the ATP content of the culture.)
Description: Finally, cell lysates were assayed with the CellTiter-GLO® assay (Promega) to obtain a luminescent-based measure of cell viability. In summary, the readouts from the high throughput screen included the primary measure of nLuc protein expression and three secondary readouts: IFIT, NF-κB and cell viability.
For each assay, A549-dual cells were plated at a seeding density of about 5×10^4 cells per well. Cells were incubated overnight with compounds at 50 microMolar (μM) in 1% v/v dimethyl sulfoxide (DMSO). For control wells, 1% DMSO was added to each well. After about 24 hours, the culture medium was removed, and cells were transfected with NP-1+mRNA at 20 ng/mRNA/well in Opti-MEM® media (Thermofisher). Interferon (IFN) was diluted to 1:50 in all test wells except for the RNA only wells and media only wells. Anti-IFN was diluted 1:1000 in “RNA+anti-IFN+IFN” wells. Cells were incubated for 4 hours, and culture medium was added to the Opti-MEM® medium. After 24 hours, assay supernatants were collected and analyzed for nLuc expression, IFIT2 (qLuc), and NFκB (qBLUE-SEAP™, InvivoGen) activation. Cells were then lysed, and cell viability was determined by CellTiter-Glo® (Promega) assay.

Where a name gives a salt, the structure may show the parent alone.

On to `CN1CC[C@H](c2c(O)cc(O)c3c(=O)cc(-c4ccc(C(F)(F)F)cc4Cl)oc23)[C@H]1CO` [(2S,3R)-Voruciclib (hydrochloride), 2-[2-chloro-4-(trifluoromethyl)phenyl]-5,7-dihydroxy-8-[(2S,3R)-2-(hydroxymethyl)-1-methylpyrrolidin-3-yl]chromen-4-one; hydrochloride], for which the values for the fold induction at 50 µM with A549-Dual cells [1], with IFIT2 and in the data set on NF-κB were 113, 1.09 and 0.26, respectively.

`Cc1[nH]ncc1-c1cc2nc([C@H]3CC4CCN3CC4)[nH]c(=O)c2s1` [(R)-Simurosertib]: the “fold nLuc over RNA + IFN” value with A549-Dual cells [1] came out at 200.44 fold. In the data set with IFIT2, the “fold IFIT over IFN” value was 1.84 fold. Also, in the data set on NF-κB, the “fold NFkB over IFN” value is on record as 1.33 fold. For the same molecule, the “% viability” value in the data set with A549-Dual cells [2] stood at 86%.

Turning to `COc1ccc(-c2c[nH]c3nccc(-c4ccsc4)c23)c(OC)c1` [ARN-3236, 3-(2,4-dimethoxyphenyl)-4-thiophen-3-yl-1-pyrrolo[2,3-b]pyridine], the “fold nLuc over RNA + IFN” value with A549-Dual cells [1] is 322.60 fold. In addition, the “fold IFIT over IFN” value in the data set on IFIT2 came to 1.61 fold. The “fold NFkB over IFN” value in the data set with NF-κB is recorded as 0.41 fold. Moreover, in the data set on A549-Dual cells [2], the “% viability” value came to 33%.

Turning to `CCN1CCN(Cc2ccc(NC(=O)Nc3ccc(Oc4cc(NC)ncn4)cc3)cc2C(F)(F)F)CC1` [AST 487, 1-[4-[(4-ethylpiperazin-1-yl)methyl]-3-(trifluoromethyl)phenyl]-3-[4-[6-(methylamino)pyrimidin-4-yl]oxyphenyl]urea], the fold induction at 50 µM with A549-Dual cells [1] came out at 183; in the data set with IFIT2, 0.19; in the data set with NF-κB, 0.14. Besides, the “% viability” value in the data set with A549-Dual cells [2] was 32%.

As to `Cl.O=C(NC1CCNCC1)c1n[nH]cc1NC(=O)c1c(Cl)cccc1Cl` [AT7519 (Hydrochloride), 4-[(2,6-dichlorobenzoyl)amino]-N-piperidin-4-yl-1H-pyrazole-5-carboxamide; hydrochloride], the fold induction at 50 µM was found to be 123 in the data set on A549-Dual cells [1], 0.88 in the data set with IFIT2 and 0.43 in the data set on NF-κB. In the data set with A549-Dual cells [2], the “% viability” value was found to be 42%.

For the molecule `Cc1ncc(-c2ccnc(Nc3ccc(S(C)(=O)=O)cc3)n2)n1C(C)C` [AZD-5438, 4-(1-isopropyl-2-methyl-1H-imidazol-5-yl)-N-(4-(methylsulfonyl)phenyl)pyrimidin-2-amine], the fold induction at 50 µM in the data set on A549-Dual cells [1] came out at 353; with IFIT2, 2.39; with NF-κB, 0.38. Besides, the “% viability” value in the data set on A549-Dual cells [2] worked out at 46%.

Turning to `Cc1cc(Nc2cc(Cl)nc(Oc3ccc([N+](=O)[O-])cc3)n2)n[nH]1` [Autophinib, 6-chloro-NV-(5-methyl-1H-pyrazol-3-yl)-2-(4-nitrophenoxy)pyrindin-4-amine], the “fold nLuc over RNA + IFN” value in the data set on A549-Dual cells [1] worked out at 128.89 fold. For the same molecule, the “fold IFIT over IFN” value in the data set on IFIT2 turned out to be 1.09 fold. Further, the “fold NFkB over IFN” value in the data set on NF-κB is given as 0.78 fold. For the same molecule, in the data set on A549-Dual cells [2], the “% viability” value came to 49%.

As for `Cc1nc2c(NCc3cccc(S(C)(=O)=O)c3)nccn2c1-c1ccc(O)c(F)c1` [BF738735, 2-fluoro-4-[2-methyl-8-[(3-methylsulfonylphenyl)methylamino]imidazo[1,2-a]pyrazin-3-yl]phenol], the fold induction at 50 µM worked out at 239 with A549-Dual cells [1], 0.37 with IFIT2 and 0.62 in the data set on NF-κB. Moreover, the “% viability” value in the data set on A549-Dual cells [2] is reported as 93%.

For the molecule `Cc1cnc(-c2cnc(NCCNc3ccc(C#N)cn3)nc2-c2ccc(Cl)cc2Cl)[nH]1` [CHIR-99021 (monohydrochloride), 6-[2-[[4-(2,4-dichlorophenyl)-5-(5-methyl-1H-imidazol-2-yl)pyrimidin-2-yl]amino]ethylamino]pyridine-3-carbonitrile], the fold induction at 50 µM was 116 with A549-Dual cells [1], 0.35 in the data set with IFIT2 and 0.71 in the data set on NF-κB.

On to `COc1cc(Nc2ncc3ccn(-c4cccc(CCC#N)c4)c3n2)cc(OC)c1OC` [Casein Kinase II Inhibitor IV, 3-[3-[2-(3,4,5-trimethoxyanilino)pyrrolo[2,3-d]pyrimidin-7-yl]phenyl]propanenitrile], for which the fold induction at 50 µM in the data set with A549-Dual cells [1] stood at 126; in the data set on IFIT2, 0.79; with NF-κB, 0.46. Besides, the “% viability” value in the data set on A549-Dual cells [2] came out at 18%.

On to `Oc1cccc(Nc2ncc(F)c(Nc3cccc(O)c3)n2)c1` [Compound R112, 3-[[5-fluoro-2-(3-hydroxyanilino)pyrimidin-4-yl]amino]phenol], for which the fold induction at 50 µM in the data set on A549-Dual cells [1] came out at 521; with IFIT2, 1.33; in the data set on NF-κB, 1.16. For the same molecule, the “% viability” value with A549-Dual cells [2] worked out at 76%.

Take `COCCOc1ccc(-c2cn(-c3ccccc3)c3nc[nH]c(=O)c23)cc1` [DMX-5804, 5-[4-(2-methoxyethoxy)phenyl]-7-phenyl-3H-pyrrolo[2,3-d]pyrimidin-4-one]: the values for the fold induction at 50 µM with A549-Dual cells [1], with IFIT2 and in the data set with NF-κB were 267, 0.4 and 1.35, respectively. Further, the “% viability” value in the data set with A549-Dual cells [2] worked out at 92%.

For the molecule `O=C1Nc2ccccc2/C1=C/c1ccccn1` [GSK-3 inhibitor 1], in the data set on A549-Dual cells [1], the “fold nLuc over RNA + IFN” value was 225.93 fold. Further, in the data set on IFIT2, the “fold IFIT over IFN” value was determined as 0.65 fold. Also, the “fold NFkB over IFN” value in the data set with NF-κB was 1.00 fold. For the same molecule, the “% viability” value in the data set with A549-Dual cells [2] turned out to be 90%.

For `CN(c1ccc(NC(=O)Nc2ccc(OC(F)(F)F)cc2)cc1)c1ccnc(Nc2cccc(S(N)(=O)=O)c2)n1` [GW806742X (hydrochloride), 1-[4-[methyl-[2-(3-sulfamoylanilino)pyrimidin-4-yl]amino]phenyl]-3-[4-(trifluoromethoxy)phenyl]urea], the fold induction at 50 µM in the data set with A549-Dual cells [1] was found to be 842; in the data set with IFIT2, 3.93; in the data set on NF-κB, 0.91. Also, the “% viability” value in the data set with A549-Dual cells [2] is 41%.

Take `C[C@H](Nc1cc(-c2cnn(C)c2)cc(Nc2cnccn2)n1)c1ccc(F)cc1.Cl` [Ilginatinib hydrochloride, 6-N-[(1S)-1-(4-fluorophenyl)ethyl]-4-(1-methylpyrazol-4-yl)-2-N-pyrazin-2-ylpyridine-2,6-diamine; hydrochloride]: the “fold nLuc over RNA + IFN” value in the data set on A549-Dual cells [1] stood at 484.10 fold. The fold induction at 50 µM with IFIT2 is 3.17; in the data set on NF-κB it was 1.39.

Take `C[C@H](Nc1cc(-c2cnn(C)c2)cc(Nc2cnccn2)n1)c1ccc(F)cc1` [Ilginatinib, 6-N-[(1S)-1-(4-fluorophenyl)ethyl]-4-(1-methylpyrazol-4-yl)-2-N-pyrazin-2-ylpyridine-2,6-diamine]: the “fold nLuc over RNA + IFN” value in the data set with A549-Dual cells [1] is given as 115.95 fold. In addition, the fold induction at 50 µM with IFIT2 was 1.89; with NF-κB, 1.12.

Take `C[C@@H](Oc1ccc2[nH]nc(/C=C/c3cnn(CCO)c3)c2c1)c1c(Cl)cncc1Cl` [LY2874455, 2-[4-[(E)-2-[5-[(1R)-1-(3,5-dichloropyridin-4-yl)ethoxy]-1H-indazol-3-yl]ethenyl]pyrazol-1-yl]ethanol]: the fold induction at 50 µM in the data set on A549-Dual cells [1] is 150; in the data set with IFIT2, 0.09; with NF-κB, 0.3. Also, the “% viability” value in the data set on A549-Dual cells [2] turned out to be 58%.

As to `Cn1nc(C(C)(C)C)cc1NC(=O)Nc1ccc(Oc2ccncc2)cc1` [MAPK13-IN-1, 1-(5-tert-buty-2-methylpyrazol-3-yl)-3-(4-pyridin-4-yloxyphenyl)urea], in the data set with A549-Dual cells [1], the “fold nLuc over RNA + IFN” value turned out to be 207.89 fold. Moreover, the “fold IFIT over IFN” value with IFIT2 was 1.93 fold. The “fold NFkB over IFN” value in the data set with NF-κB is 0.66 fold. Also, the “% viability” value in the data set with A549-Dual cells [2] was determined as 59%.

Turning to `Cc1cc(O)c(-c2ccc([C@@H](C)CN)cc2)c2c1[nH]c(=O)c1sccc12` [OTS514, 9-[4-[(2R)-1-aminopropan-2-yl]phenyl]-8-hydroxy-6-methyl-5H-thieno[2,3-c]quinolin-4-one], the fold induction at 50 µM in the data set with A549-Dual cells [1] was determined as 349; in the data set with IFIT2, 0.4; in the data set on NF-κB it was 0.35. Further, in the data set with A549-Dual cells [2], the “% viability” value came to 66%.

Regarding `Cc1cc(F)c(C(=O)Nc2cccc(-c3nncn3C(C)C)n2)cc1-n1cnc(C2CC2)c1` [Selonsertib, 5-(4-cycloproplirnidazol-1-yl)-2-fluoro-4-methyl-N-[6-(4-propan-2-yl-1,2,4-triazol-3-yl)pyridin-2-yl]benzamide], the fold induction at 50 µM in the data set on A549-Dual cells [1] is 112; with IFIT2, 1.43; in the data set with NF-κB, 0.9.

As for `CN1CC[C@@H](c2c(O)cc(O)c3c(=O)cc(-c4ccc(C(F)(F)F)cc4Cl)oc23)[C@@H]1CO` [Voruciclib (hydrochloride), 2-[2-chloro-4-(trifluoromethyl)phenyl]-5,7-dihydroxy-8-[(2R,3S)-2-(hydroxymethyl)-1-methylpyrrolidin-3-yl]chromen-4-one], the fold induction at 50 µM with A549-Dual cells [1] came out at 274; in the data set on IFIT2, 0.8; in the data set with NF-κB, 0.63.
